# Laboratory results from ChEMBL document CHEMBL2157933, “The synthesis and antituberculosis activity of 5'-nor carbocyclic uracil derivatives” (Bioorg Med Chem, 2012).
# Assays:
# Assay type in all cases: functional
# [1] = tested on: Mycobacterium tuberculosis; test: Antibacterial activity against multidrug-resistant Mycobacterium tuberculosis MS-115 under anaerobic condition assessed as growth inhibition at 10 to 20 ug/ml by BACTEC method
# [2] = tested on: Mycobacterium tuberculosis; test: Antibacterial activity against multidrug-resistant Mycobacterium tuberculosis MS-115 under anaerobic condition by BACTEC method
# [3] = tested on: Mycobacterium tuberculosis; test: Antibacterial activity against multidrug-resistant Mycobacterium tuberculosis MS-115 under anaerobic condition assessed as growth inhibition at 20 ug/ml by BACTEC method; details: read-out: GI
# [4] = tested on: Mycobacterium tuberculosis; test: Antibacterial activity against multidrug-resistant Mycobacterium tuberculosis MS-115 under anaerobic condition assessed as growth inhibition at 10 ug/ml by BACTEC method; details: read-out: GI
# [5] = tested on: Mycobacterium tuberculosis; test: Antibacterial activity against multidrug-resistant Mycobacterium tuberculosis MS-115 under anaerobic condition assessed as growth inhibition at 5 ug/ml by BACTEC method; details: read-out: GI
# [6] = tested on: Mycobacterium tuberculosis; test: Antibacterial activity against multidrug-resistant Mycobacterium tuberculosis MS-115 under anaerobic condition assessed as growth inhibition at 0.1 ug/ml by BACTEC method; details: read-out: GI
# [7] = tested on: Mycobacterium tuberculosis; test: Antibacterial activity against multidrug-resistant Mycobacterium tuberculosis MS-115 under anaerobic condition assessed as growth inhibition at 2 ug/ml by BACTEC method; details: read-out: GI
# [8] = tested on: Mycobacterium tuberculosis; test: Antibacterial activity against multidrug-resistant Mycobacterium tuberculosis MS-115 under anaerobic condition assessed as growth inhibition at 100 ug/ml by BACTEC method; details: read-out: GI
# [9] = tested on: Mycobacterium tuberculosis; test: Antibacterial activity against multidrug-resistant Mycobacterium tuberculosis MS-115 under anaerobic condition assessed as growth inhibition at 1 ug/ml by BACTEC method; details: read-out: GI
compound,measurement,setting,value
CCCCCCCCCCCCC#Cc1cn(C2C=CC(O)C2)c(=O)[nH]c1=O (racemic),growth inhibition (GI),[1],100%
"CCCCCCCCCCCCC#Cc1cn(C2C=CC(O)C2)c(=O)[nH]c1=O (single isomer, unassigned; (-))",MIC99,[2],10 µg/mL
same,inhibition of growth at 20 µg/mL,[3],100%
same,inhibition of growth at 10 µg/mL,[4],99%
CC[C@@H](CO)NCCN[C@@H](CC)CO [ETHAMBUTOL],inhibition of growth at 5 µg/mL,[5],0%
NNC(=O)c1ccncc1 [ISONIAZID],inhibition of growth at 0.1 µg/mL,[6],0%
CC1COc2c(N3CCN(C)CC3)c(F)cc3c(=O)c(C(=O)O)cn1c23 (stereo unspecified) [OFLOXACIN],MIC99,[2],2 µg/mL
same,inhibition of growth at 2 µg/mL,[7],100%
NC(=O)c1cnccn1 [PYRAZINAMIDE],inhibition of growth at 100 µg/mL,[8],0%
CO[C@H]1/C=C/O[C@@]2(C)Oc3c(C)c(O)c4c(O)c(c(/C=N/N5CCN(C)CC5)c(O)c4c3C2=O)NC(=O)/C(C)=C\C=C\[C@H](C)[C@H](O)[C@@H](C)[C@@H](O)[C@@H](C)[C@H](OC(C)=O)[C@@H]1C [RIFAMPIN],inhibition of growth at 1 µg/mL,[9],0%
CN[C@@H]1[C@H](O[C@H]2[C@H](O[C@H]3[C@H](O)[C@@H](O)[C@H](N=C(N)N)[C@@H](O)[C@@H]3N=C(N)N)O[C@@H](C)[C@]2(O)C=O)O[C@@H](CO)[C@H](O)[C@H]1O [STREPTOMYCIN],inhibition of growth at 0.1 µg/mL,[6],0%
